What all share (format): binding
The target of assay [1] is T1, D. rerio MDM2 (Danio rerio, UniProt O42354).
T1 construct: NusA-TEV-His6-PreScission site (N, cleaved yes); made in house; host or cells: Escherichia coli BL21 (DE3)
T1 sequence (O42354 with tags, fused parts or gaps): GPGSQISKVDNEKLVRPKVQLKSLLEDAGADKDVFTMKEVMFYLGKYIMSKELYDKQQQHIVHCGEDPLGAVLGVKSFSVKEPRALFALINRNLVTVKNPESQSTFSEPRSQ
As to the kind of experiment: Isothermal titration calorimetry. Particulars: 25 °C; for TΔS / ΔH / Kd: ITC. On the procedure:
For ITC experiments, a MicroCal iTC200 instrument (GE Healthcare) was used, and the experiments were performed at 25 °C. The MDM2 protein and p53TAD peptides were dialyzed against the experimental buffer prior to experiments to avoid buffer mismatch. The concentration of D. rerio MDM2 in the cell was 11 μM and the concentration of p53TADD.rerio^17–32 and p53TADD.rerio^10–75 in the syringe was 118 and 116 μM, respectively. Results were analyzed using the built-in software and a 2-state binding model was assumed.
A general note: In ITC the heat of successive injections is recorded.

Assay [2] deals with T2, MDM2H.sapiens SWIB domain (Homo sapiens, UniProt Q00987).
T2 construct: NusA-TEV-His6-PreScission (N, cleaved yes); made in house; host or cells: Escherichia coli BL21 (DE3)
T2 sequence (Q00987 with tags, fused parts or gaps): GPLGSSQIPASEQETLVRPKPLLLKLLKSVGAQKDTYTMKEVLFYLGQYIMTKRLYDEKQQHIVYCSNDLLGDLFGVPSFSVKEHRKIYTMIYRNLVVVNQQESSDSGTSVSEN
As to the kind of experiment: Fluorescence polarization displacement assay. (In general: In fluorescence polarisation assays a small probe gives low polarisation when free and higher when bound to something large.)

Assay [3] concerns the target T3, MDM2D.rerio SWIB domain (Danio rerio, UniProt O42354).
T3 construct: NusA-TEV-His6-PreScission (N, cleaved yes); made in house; host or cells: Escherichia coli BL21 (DE3)
T3 sequence (O42354 with tags, fused parts or gaps): T1 sequence (O42354 with tags, fused parts or gaps)
Put plainly: Fluorescence polarization displacement assay.

Assay [4] addresses MDM2 SWIB domain, Lepisosteus oculatus. As to the kind of experiment: Fluorescence polarization displacement assay.
The target of assay [5] is MDM2 SWIB domain, Maylandia zebra. As to the kind of experiment: Fluorescence polarization displacement assay. Particulars: for IC50 / Ki: M.zeb MDM2 2000 nM.
Sequence of MDM2 SWIB domain, Maylandia zebra (as listed by the source): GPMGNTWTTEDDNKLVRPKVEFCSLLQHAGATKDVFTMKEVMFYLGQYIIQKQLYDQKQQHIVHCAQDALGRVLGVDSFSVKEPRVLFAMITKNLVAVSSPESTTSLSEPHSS
Assay [6] addresses MDM2 SWIB domain, Takifugu rubripes. Put plainly: Fluorescence polarization displacement assay. Particulars: for IC50 / Ki: T.rub MDM2 1500 nM.
Assay [7] deals with MDM2 SWIB domain, Channa argus. As to the kind of experiment: Fluorescence polarization displacement assay. Particulars: for IC50 / Ki: C.arg MDM2 1500 nM.
Sequence of MDM2 SWIB domain, Channa argus (as listed by the source): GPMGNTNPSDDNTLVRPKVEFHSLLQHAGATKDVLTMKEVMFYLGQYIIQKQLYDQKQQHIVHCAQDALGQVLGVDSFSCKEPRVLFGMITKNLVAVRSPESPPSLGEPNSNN
[8] abbreviates: labeled probe 15 nM, replicate 1, read-out: IC50 [M] (IT).
[9] abbreviates: labeled probe 15 nM, replicate 3, read-out: IC50 [M] (IT).
The mark [10] stands for this setting: average of the replicates, probe 15 nM, Kd for probe […], read-out: Ki [nM] Average.
Where [11] appears, read: average of the replicates, probe 15 nM, Kd for probe […], read-out: Ki [µM] Average.
[12] abbreviates: calculated from IC50, Kd for probe […], probe 15 nM, replicate 1, read-out: Ki.
The mark [13] stands for this setting: calculated from IC50, Kd for probe […], probe 15 nM, replicate 2, read-out: Ki.
The mark [14] stands for this setting: calculated from IC50, Kd for probe […], probe 15 nM, replicate 3, read-out: Ki.
The mark [15] stands for this setting: mean of the replicates, probe 15 nM, read-out: IC50 [nM], mean of the replicates.
[16] abbreviates: labeled probe 15 nM, replicate 2, read-out: IC50.

“And” between values parts separate entries of the source, which are not always exact repeats. Equal values may be shown once. Read-outs that look alike come from different tables or passages of the source. Where no end group is shown, it is not given here.

Sequence of MDM2 SWIB domain, Lepisosteus oculatus (as listed by the source): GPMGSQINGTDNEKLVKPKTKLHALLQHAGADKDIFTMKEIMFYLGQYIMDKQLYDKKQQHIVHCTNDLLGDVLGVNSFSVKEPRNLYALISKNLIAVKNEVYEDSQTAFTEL
Sequence of MDM2 SWIB domain, Takifugu rubripes (as listed by the source): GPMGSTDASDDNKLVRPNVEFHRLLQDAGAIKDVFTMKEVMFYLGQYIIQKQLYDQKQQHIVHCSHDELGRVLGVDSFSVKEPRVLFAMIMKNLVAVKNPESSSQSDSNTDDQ

“Ac-EFAELWEKNLISIQP (N-terminus assumed) [D.rer p53 17-32 (G1K]”: in assay [1] (first replicate), the “N (ITC stoichiometry)” value stood at 0.74±0.01, the TΔS came to 1.7 kcal/mol and the ΔH was -7.2 ± 0.1 kcal/mol. Also, in assay [1] (second replicate), the “N (ITC stoichiometry)” value was determined as 0.76±0.01, the TΔS is 1.2 kcal/mol and the ΔH was -7.6 ± 0.1 kcal/mol.

In assay [2], Ac-SQEFAELWEKNL [D.rer p53 P2 short] showed an IC50 of 31800 nM and a Ki of 4330 nM. In assay [3], this substance yielded a half-maximal inhibitory concentration (IC50) of 3.39e-05 M and a Kd of 3600 ± 300 nM.

Consider “GPMGMADPEPEGLPLSQESFQELWNMVIVLHRAVPPENAQWPDLQSMLYTNELVPNAIDSLYEELEPHVSMPPQPMVSNPDGLAPSSST [L.ocu p53 full, expressed full-length spotted gar p53TAD]”, for which, in assay [4] (FP displacement of FITC-p53TADhuman^15–26 (15 nM) from MDM2 (1 μM), KD from IC50, 20 mM sodium phosphate pH 7.4, 150 mM NaCl, 1 mM TCEP), the Kd amounted to 85 ± 5 nM. Besides, the IC50 in assay [4] (equals the mean of the replicates, read-out: IC50 [nM], mean) worked out at 2090 nM; in assay [4] (replicate 1, MDM2 1000 nM, labeled probe 15 nM, read-out: IC50 [M] (IT)), 2170 nM; in assay [4] (replicate 2, MDM2 1000 nM, labeled probe 15 nM, read-out: IC50 [M] (IT)), 2140 nM; in assay [4] (replicate 3, MDM2 1000 nM, labeled probe 15 nM, read-out: IC50 [M] (IT)), 1960 nM. The Ki in assay [4] (mean of the replicates (n = 3 or 6), read-out: Ki [nM] Average) is 84.7 nM; in assay [4] (mean of the replicates (n = 3 or 6), read-out: Ki [µM] Average) it was 84.7 nM; in assay [4] (replicate 1, calculated from IC50 with Kd for probe 78 nM, read-out: Ki) it was 90.7 nM; in assay [4] (replicate 2, calculated from IC50 with Kd for probe 78 nM, read-out: Ki) it was 88.6 nM; in assay [4] (replicate 3, calculated from IC50 with Kd for probe 78 nM, read-out: Ki), 74.9 nM.

“GPMGMAEQGFEDLQLSQNLPFSQDSFKELWDQLPVAESLSVSLDTISAVNSSTTGHDETWRPDGTMDMFQLINDQQLAEHFDEKLFELPNDALPKDGVTPPAST [M.zeb p53 P1 full, expressed full-length zebra mbuna p53TAD paralog 1]” displayed a Kd in assay [5] (FP displacement of FITC-p53TADhuman^15–26 (15 nM) from MDM2 (2 μM), KD from IC50, 20 mM sodium phosphate pH 7.4, 150 mM NaCl, 1 mM TCEP) of 190 ± 20 nM. Besides, the IC50 in assay [5] (setting [8]) came out at 3.27e-06 M; in assay [5] (labeled probe 15 nM, replicate 2, read-out: IC50 [M] (IT)), 3.18e-06 M; in assay [5] (setting [9]), 2.72e-06 M; in assay [5] (setting [15]), 3.06e-06 M. Also, the Ki was 188 nM in assay [5] (setting [10]); 190 nM in assay [5] (setting [11]); 218 nM in assay [5] (setting [12]); 206 nM in assay [5] (setting [13]); 140 nM in assay [5] (setting [14]).

Turning to “GPMGMAQNDSQEFAELWEKNLISIQPPGGGSCWDIINDEEYLPGSFDPNFFGNVLEEQPQPSTLPPTST* [D.rer p53 P2 full, expressed whole TAD region of D. rerio p53]”, the “N (ITC stoichiometry)” value in assay [1] (first replicate) was found to be 0.79±0.01; in assay [1] (second replicate), 0.74±0.01. The Kd in assay [1] (MDM2 11 μM in the cell, approximate value) is around 100 nM; in assay [1] (one of two replicates, the first printed for this construct in Fig. S5 (replicate number not assignable)), 100 ± 20 nM; in assay [1] (one of two replicates, the second printed for this construct in Fig. S5 (replicate number not assignable)), 100 ± 10 nM; in assay [3] (FP displacement of FITC-p53TADhuman^15–26 (15 nM) from MDM2 (1 μM or 1.5 μM, both printed), KD from IC50, 20 mM sodium phosphate pH 7.4, 150 mM NaCl, 1 mM TCEP, read-out: KD), 49 ± 8 nM; in assay [3] (FP displacement, printed in nM (text, Fig. S4A), read-out: KD), 49 nM. Further, the TΔS is reported as 1.7 kcal/mol in assay [1] (first replicate) and 2.0 kcal/mol in assay [1] (second replicate). For the same substance, the figures for the ΔH in assay [1] (first replicate) and in assay [1] (second replicate) were -7.8 ± 0.1 kcal/mol and -7.6 ± 0.1 kcal/mol, respectively. The “fold higher affinity than p53TAD^15–27D.rerio” value in assay [3] (ratio of KD values, FP displacement) is given as “more than 70 fold”. The IC50 is 1.73e-06 M and 1.93e-06 M and 1.69e-06 M in assay [3] (read-out: IC50 [M] (IT)); 1.78e-06 M in assay [3] (read-out: IC50 [nM], mean of the replicates (cell without heading below the column)). Moreover, the Ki is 42.6 nM and 65.1 nM and 39.2 nM in assay [3] (read-out: Ki); 49 nM in assay [3] (read-out: Ki [nM] Average); 49 nM in assay [3] (read-out: Ki [µM] Average).

In the case of “GPMGMEDEGFSLPLSQDTFQDLWENVAAPSIVTIPTTSLENEQWHQELLMNYPELPFNEELFNLPSEMASKDSANLSTPT [T.rub p53 P1 full, expressed full-length Japanese puffer p53TAD paralog 1]”, binding in assay [6] (FP displacement of FITC-p53TADhuman^15–26 (15 nM) from MDM2, KD from IC50, 20 mM sodium phosphate pH 7.4, 150 mM NaCl, 1 mM TCEP) was put at a Kd of 470 ± 30 nM. Moreover, the IC50 in assay [6] (setting [8]) worked out at 4.93e-06 M; in assay [6] (setting [16]), 4.16e-06 M; in assay [6] (setting [9]), 4.19e-06 M; in assay [6] (labeled probe 15 nM, replicate 4, read-out: IC50 [M] (IT)) it was 3.43e-06 M; in assay [6] (labeled probe 15 nM, replicate 5, read-out: IC50 [M] (IT)), 4.05e-06 M; in assay [6] (labeled probe 15 nM, replicate 6, read-out: IC50 [M] (IT)), 4.53e-06 M. Also, the IC50 in assay [6] (setting [15]) is 4.21e-06 M. Further, the Ki was 475 nM in assay [6] (average of the replicates, probe 15 nM, Kd for probe 290 nM, read-out: Ki [nM] Average); 475 nM in assay [6] (average of the replicates, probe 15 nM, Kd for probe 290 nM, read-out: Ki [µM] Average); 592 nM in assay [6] (calculated from IC50, Kd for probe 290 nM, probe 15 nM, replicate 1, read-out: Ki); 467 nM in assay [6] (calculated from IC50, Kd for probe 290 nM, probe 15 nM, replicate 2, read-out: Ki); 471 nM in assay [6] (calculated from IC50, Kd for probe 290 nM, probe 15 nM, replicate 3, read-out: Ki); 347 nM in assay [6] (calculated from IC50, Kd for probe 290 nM, probe 15 nM, replicate 4, read-out: Ki). Besides, the inhibition constant Ki was 449 nM in assay [6] (calculated from IC50, Kd for probe 290 nM, probe 15 nM, replicate 5, read-out: Ki) and 527 nM in assay [6] (calculated from IC50, Kd for probe 290 nM, probe 15 nM, replicate 6, read-out: Ki).

Consider “GPMGMMEEQGFESLPLSQDSFRELWESVVTPSISTIPPAPEVPQDTMYMMLMNDQVLADGFDEKLFELPPESSTKDGVVPPSST [C.arg p53 P1 full, expressed full-length northern snakehead p53TAD paralog 1]”, for which the IC50 in assay [7] (setting [8]) turned out to be 1.82e-06 M; in assay [7] (setting [16]), 1.47e-06 M; in assay [7] (setting [9]), 1.52e-06 M; in assay [7] (setting [15]) it was 1.6e-06 M. Also, binding in assay [7] (FP displacement of FITC-p53TADhuman^15–26 (15 nM) from MDM2 (1.5 μM), KD from IC50, 20 mM sodium phosphate pH 7.4, 150 mM NaCl, 1 mM TCEP) was characterised by a dissociation constant (Kd) of 100 ± 30 nM. The Ki in assay [7] (setting [10]) is 98.6 nM; in assay [7] (setting [11]), 98.6 nM; in assay [7] (setting [12]) it was 153 nM; in assay [7] (setting [13]) it was 65.5 nM; in assay [7] (setting [14]) it was 77.8 nM.

In assay [3], “GSQNDSQEFAELWEKNLISIQPPGGGSCWDIINDEEYLPGSFDPN [D.rer p53 P2 longer]” showed an IC50 of 1.64e-06 M.

One may read the IC50 as the midpoint of a concentration-inhibition curve. The term Ki denotes a measure of affinity in units of concentration, obtained from inhibition or displacement. By Kd is commonly meant the equilibrium constant for the complex coming apart.
